Assay results published in patent EP4745138A1, “THIO-GLUTARIMIDO ISOINDOLINONE DERIVATIVE, BIFUNCTIONAL PROTEIN DEGRADER CONTAINING SAME, AND USES THEREOF” (Gluetacs Therapeutics (Shanghai) Co., Ltd., priority 2023, dated 2025).
Like-named read-outs stand apart in the source and are kept apart here.

Legend:
IRAK4 = biological target: T1, IRAK4 (Homo sapiens, UniProt Q9NWZ3); experiment: Western blot, target protein degradation in hPBMC Cell; type: cell-based; details: substrate protein remaining %, treated at 50 nM and 500 nM, 24 hours
T1 construct: endogenous in cells; host or cells: hPBMC
Protocol: (§1) Conventional Western blot assay was performed to evaluate the effects of the compounds of the present disclosure on the expression of target proteins in cells.
(§2) (1) Cell Seeding and Protein Harvesting: The selected cells were processed according to the cell seeding procedure and protein harvesting procedure in Table II-2. Table II-2 Cell Seeding and Protein Harvesting Procedures
(§3) (2) To the collected supernatant, 5X SDS sample loading buffer was added, followed by denaturation at 95°C for 5 minutes. The denatured samples were then separated by SDS-PAGE electrophoresis on a polyacrylamide gel. Proteins were transferred to a nitrocellulose membrane (0.45 µm NC membrane), blocked with blocking buffer at room temperature for 1 hour, and subjected to antibody incubation and development procedures according to the antibody manufacturer's instructions (Cell Signaling Technology).
(§4) Half-Maximal Degradation Concentration value (the drug concentration required for degrading proteins by 50%, abbreviated as DC50) reads method: comparing the grayscale values of Western blot bands from drug-treated samples with those from blank DMSO-treated controls, and identifying the drug concentration range at which the grayscale value is half that of the DMSO-treated control bands.
(§5) DC50 values can be calculated using ImageJ software to measure grayscale values of Western blot bands from drug-treated samples. The concentration-response curve is fitted to estimate the drug concentration corresponding to half the grayscale value.
(§6) Target protein remaining (%) refers to the percentage of target protein remaining in cells after treatment with protein degrader compounds.
(§7) Calculation method for target protein remaining (%): Use ImageJ software to measure grayscale values of Western blot bands from drug (protein degrader)-treated samples. The grayscale value of drug-treated bands is divided by that of internal control protein bands, and the resulting quotient is normalized to obtain the relative percentage of remaining target protein after protein degrader treatment. Target protein degradation rate(%) = 1−target protein remaining(%). [formula]

[1] = biological target: T2, human Cereblon WT GST-tagged protein (Homo sapiens, UniProt Q96SW2); experiment: CRBN-binding affinity, HTRF (CEREBLON BINDING kit); details: for inhibition at 0.5 µM: read-out: Inhibition Rate at 0.5 µM (%); for inhibition at 2 µM: read-out: Inhibition Rate at 2 µM (%)
T2 construct: purchased CISBIO 64BDCRBNPEH
In short: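 Binding to GST-tagged Cereblon was probed by HTRF tracer displacement (thalidomide-red acceptor, anti-GST Eu donor), with compounds present at final 2 µM and 0.5 µM.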

AKT = experiment: Western blot, target protein degradation in hPBMC Cell; type: cell-based, Human; details: substrate protein remaining %, treated at 50 nM and 500 nM, 24 hours
Protocol: as §1, §2, §3, §4, §5, §6
as §7, with “Target protein degradation rate(%) = 1−target protein remaining(%). [formula]” left out

MM.1S = experiment: Tumor cell proliferation inhibition (CellTiter-Meiluncell Luminescent Cell Viability Assay); type: cell-based; details: Homo sapiens, MM1.S, MM.1S, 96 hours; for inhibition at 0.01 µM: 10 nM, read-out: Inhibition Rate at 10 nM (%); for inhibition at 0.5 µM: 500 nM, read-out: Inhibition Rate at 500 nM (%)
In short: (§8)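 Following overnight seeding, tumor cells received serial compound dilutions to final levels that included 10 nM and 500 nM. Viability was assessed by luminescence at the end of the specified exposure time. Cultures were kept at 37°C with 5% CO2.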

Tau = experiment: Western blot, target protein degradation in H4 Cell; type: cell-based; details: substrate protein remaining %, treated at 500 nM and 50 nM, 24 hours
Protocol: as §1, §2, §3, §4, §5, §6
as §7, with “Target protein degradation rate(%) = 1−target protein remaining(%). [formula]” left out

ALK = biological target: T3, ALK (Homo sapiens, UniProt Q96SW2+Q9HC35+Q9UM73); experiment: Western blot, target protein degradation in H2228 Cell; type: cell-based; details: substrate protein remaining %, treated at 500 nM and 50 nM, 24 hours
T3 construct: endogenous in cells; host or cells: H2228
Protocol: as §1, §2, §3, §4, §5, §6, §7

HCC827 = experiment: Tumor cell proliferation inhibition (CellTiter-Meiluncell Luminescent Cell Viability Assay); details: Homo sapiens, 96 hours, Table I-1, designed based on the ALK inhibitors, read-out: Inhibitory activity (IC50, nM) HCC827
Protocol: (§9) The tumor cells used herein were cultured in a cell culture medium listed in table 3 at 37°C in an incubator with 5% CO2. Prior to experimentation, all cell lines used were correctly identified by STR profiling, and tested negative for mycoplasma contamination using a mycoplasma detection kit through routine screenings. Table 3. Tumor cells and cell culture medium used in the present disclosure
(§10) The IC50 values of the compounds of the present disclosure (including the compounds in Table 1, Table 2, and Examples) were determined using the CellTiter-Meiluncell Luminescent Cell Viability Assay Kit from Dalian Meilun Biotech Co., Ltd. The detailed procedure is as follows: Tumor cells were seeded in 96-well cell culture plates at the densities specified in Table 4. On the following day, the test compounds of the present disclosure were subjected to serial dilution. […] Subsequently, 0.5 µL of the test compound dilution was transferred into the 96-well plate containing the cells, with each well containing 100 µL of cell culture medium. […] Into the 96-well plate, the diluted test compounds and corresponding detection reagents were added, resulting in final test compound concentrations of 500 nM and 10 nM, respectively. The experimental procedure is described below using the diluted 2 µM test compound as an example.
(§11) 0.5 µL of the aforementioned diluted compound of the present disclosure (including the compounds in Table 1, Table 2, and Examples) was added to the seeded cells in 100 µL of medium, yielding a final test compound concentration of 10 nM. After the cells were treated with the compounds of the present disclosure for a specified period, the cell viability assay reagent was added to the culture medium according to the kit's instructions to determine cell viability. […] All controls were treated using the same procedure as the compounds of the present disclosure. […] Seeding protocol and treatment time for tumor cells

SR = experiment: as above; details: Homo sapiens, 96 hours, Table I-1, designed based on the ALK inhibitors, read-out: Inhibitory activity (IC50, nM) SR
Protocol: as §9, §10, §11

MCF-7 = experiment: as above; type: cell-based; details: Homo sapiens, 96 hours, Table I-2, ALK inhibitors
In short: as §8

CFPAC-1 = experiment: as above; type: cell-based; details: Homo sapiens, 96 hours, Table I-2, ALK inhibitors
In short: (§12)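 Cells were grown at 37°C under 5% CO2, seeded into 96-well plates, and dosed with compound on the next day. After a set treatment period, viability was read by luminescence with the CellTiter-Meiluncell reagent and IC50 values were derived. Final compound concentrations included 500 nM and 10 nM.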

A375 = experiment: as above; type: cell-based; details: Homo sapiens, 96 hours, Table I-2, ALK inhibitors
In short: as §12

MV-4-11 = experiment: as above; type: cell-based; details: Homo sapiens, 96 hours, Table I-2, ALK inhibitors
In short: as §8

T2 sequence (Q96SW2 whole entry): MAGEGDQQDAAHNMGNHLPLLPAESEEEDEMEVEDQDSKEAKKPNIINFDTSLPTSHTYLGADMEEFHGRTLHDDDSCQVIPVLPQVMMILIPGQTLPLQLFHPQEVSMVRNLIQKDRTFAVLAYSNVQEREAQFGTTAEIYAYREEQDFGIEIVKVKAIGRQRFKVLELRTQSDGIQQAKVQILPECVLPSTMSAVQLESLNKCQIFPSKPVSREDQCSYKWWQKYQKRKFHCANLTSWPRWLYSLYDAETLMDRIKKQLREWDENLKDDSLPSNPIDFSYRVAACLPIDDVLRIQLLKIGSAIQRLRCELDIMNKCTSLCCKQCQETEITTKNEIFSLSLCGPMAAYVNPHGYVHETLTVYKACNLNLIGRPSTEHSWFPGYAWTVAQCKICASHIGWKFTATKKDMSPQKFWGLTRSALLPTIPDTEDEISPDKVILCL
T3 sequence (Q9HC35+Q9UM73 fused): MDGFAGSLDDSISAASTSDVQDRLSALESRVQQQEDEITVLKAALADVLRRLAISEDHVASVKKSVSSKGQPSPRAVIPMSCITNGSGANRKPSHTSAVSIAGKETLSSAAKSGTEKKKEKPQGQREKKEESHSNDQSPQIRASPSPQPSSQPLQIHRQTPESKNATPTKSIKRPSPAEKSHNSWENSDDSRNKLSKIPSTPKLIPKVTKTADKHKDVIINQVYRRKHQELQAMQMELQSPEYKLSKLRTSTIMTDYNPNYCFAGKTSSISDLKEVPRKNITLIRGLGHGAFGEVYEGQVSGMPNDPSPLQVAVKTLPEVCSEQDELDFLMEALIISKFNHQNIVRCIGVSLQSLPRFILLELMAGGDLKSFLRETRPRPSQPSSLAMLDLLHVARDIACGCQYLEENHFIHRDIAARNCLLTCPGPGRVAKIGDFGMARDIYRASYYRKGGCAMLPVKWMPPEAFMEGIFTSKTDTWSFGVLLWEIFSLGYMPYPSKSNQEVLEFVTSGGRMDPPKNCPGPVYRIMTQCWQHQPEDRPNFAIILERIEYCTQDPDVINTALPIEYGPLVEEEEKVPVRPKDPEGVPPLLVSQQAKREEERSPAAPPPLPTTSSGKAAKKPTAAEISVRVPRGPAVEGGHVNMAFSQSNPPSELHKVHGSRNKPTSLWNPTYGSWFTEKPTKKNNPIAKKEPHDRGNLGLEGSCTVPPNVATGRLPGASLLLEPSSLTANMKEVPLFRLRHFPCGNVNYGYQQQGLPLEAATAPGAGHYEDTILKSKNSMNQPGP
T3 sequence (Q96SW2 whole entry): as the sequence (Q96SW2 whole entry) above
T3 sequence (Q16531 whole entry partner): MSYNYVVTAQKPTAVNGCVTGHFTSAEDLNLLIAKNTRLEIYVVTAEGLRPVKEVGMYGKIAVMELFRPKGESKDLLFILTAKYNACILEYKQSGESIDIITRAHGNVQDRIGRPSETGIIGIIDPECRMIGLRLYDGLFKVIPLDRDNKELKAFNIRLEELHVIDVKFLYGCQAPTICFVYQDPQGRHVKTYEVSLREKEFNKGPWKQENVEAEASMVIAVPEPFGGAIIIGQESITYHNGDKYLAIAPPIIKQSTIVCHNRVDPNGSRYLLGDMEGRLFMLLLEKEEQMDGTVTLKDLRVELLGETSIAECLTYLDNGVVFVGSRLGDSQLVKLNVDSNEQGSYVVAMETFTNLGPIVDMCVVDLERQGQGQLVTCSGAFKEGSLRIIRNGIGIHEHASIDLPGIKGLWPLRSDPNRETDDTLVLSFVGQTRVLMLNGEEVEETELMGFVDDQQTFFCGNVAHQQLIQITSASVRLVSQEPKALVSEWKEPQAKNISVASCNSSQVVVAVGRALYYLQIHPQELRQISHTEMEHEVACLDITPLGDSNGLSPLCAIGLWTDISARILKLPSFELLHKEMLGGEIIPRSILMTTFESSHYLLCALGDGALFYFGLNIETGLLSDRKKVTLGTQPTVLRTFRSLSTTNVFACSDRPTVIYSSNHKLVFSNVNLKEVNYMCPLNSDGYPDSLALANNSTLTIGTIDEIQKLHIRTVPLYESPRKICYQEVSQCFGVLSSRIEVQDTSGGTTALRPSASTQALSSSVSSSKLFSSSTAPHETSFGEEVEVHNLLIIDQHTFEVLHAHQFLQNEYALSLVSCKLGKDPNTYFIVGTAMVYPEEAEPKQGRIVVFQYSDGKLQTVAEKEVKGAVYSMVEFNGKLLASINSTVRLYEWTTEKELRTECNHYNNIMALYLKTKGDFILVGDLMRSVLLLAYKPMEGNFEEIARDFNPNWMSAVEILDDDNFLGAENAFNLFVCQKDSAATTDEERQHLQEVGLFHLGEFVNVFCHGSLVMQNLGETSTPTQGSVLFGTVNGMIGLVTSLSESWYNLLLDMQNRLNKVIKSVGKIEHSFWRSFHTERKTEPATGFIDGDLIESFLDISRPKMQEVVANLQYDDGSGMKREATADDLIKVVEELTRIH
T1 sequence (Q9NWZ3 whole entry): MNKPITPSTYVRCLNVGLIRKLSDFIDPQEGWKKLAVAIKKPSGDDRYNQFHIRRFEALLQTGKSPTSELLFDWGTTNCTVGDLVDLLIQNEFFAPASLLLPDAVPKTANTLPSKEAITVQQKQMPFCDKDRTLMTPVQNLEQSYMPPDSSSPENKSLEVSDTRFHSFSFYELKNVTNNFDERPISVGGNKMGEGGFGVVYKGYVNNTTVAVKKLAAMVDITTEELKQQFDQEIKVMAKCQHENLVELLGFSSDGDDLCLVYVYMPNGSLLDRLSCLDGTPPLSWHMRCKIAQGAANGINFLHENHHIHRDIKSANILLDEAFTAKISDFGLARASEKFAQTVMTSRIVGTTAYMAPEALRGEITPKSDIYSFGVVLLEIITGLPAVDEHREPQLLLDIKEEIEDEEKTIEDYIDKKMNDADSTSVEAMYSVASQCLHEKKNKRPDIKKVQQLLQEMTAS

Compound	inhibition at 0.5 µM [1] [%]	inhibition at 2 µM [1] [%]	Degradation of substrate protein AKT (AKT)	Degradation of substrate protein Tau (Tau)	also measured
CC(C)(O)c1cc2nn(C3CCN(Cc4ccc5c(c4)CN(C4CCC(=O)NC4=O)C5=S)CC3)cc2cc1NC(=O)c1cccc(C(F)(F)F)n1 (stereo not shown) [GT-05297, N-(2-(1-((2-(2,6-dioxopiperidin-3-yl)-1-thioxoisoindolin-5-yl)methyl)piperidin-4-yl)-6-(2-hydroxypropan-2-yl)-2H-indazol-5-yl)-6-(trifluoromethyl)picolinamide]	60 to 80	80 to 100			Degradation of substrate protein IRAK4 (IRAK4): A (0% ≤ substrate protein remaining % ≤ 80%)
Cn1ncc(Cl)c1-c1cc(C(=O)N[C@H](CNCc2ccc3c(c2)CN(C2CCC(=O)NC2=O)C3=S)Cc2ccc(F)c(F)c2)oc1Cl (stereo partly drawn) [GT-08895, 5-chloro-4-(4-chloro-1-methyl-1H-pyrazol-5-yl)-N-((2S)-1-(3,4-difluorophenyl)-3-(((2-(2,6-dioxopiperidin-3-yl)-1-thioxoisoindolin-5-yl)methyl)amino)propan-2-yl)furan-2-carboxamide]	30 to 40	60 to 80	A (0% ≤ substrate protein remaining % ≤ 80%)		inhibition at 0.01 µM (MM.1S; Table I-14, AKT inhibitors): 30 to 40%; inhibition at 0.5 µM (MM.1S; Table I-14, AKT inhibitors): 50 to 60%
CC(=O)N1CCCN(c2nc(NCCc3cccs3)nc(N3CCN(Cc4ccc5c(c4)CN(C4CCC(=O)NC4=O)C5=S)CC3)n2)CC1 (stereo not shown) [GT-08867, 3-(5-((4-(4-(4-acetyl-1,4-diazepan-1-yl)-6-((2-(thiophen-2-yl)ethyl)amino)-1,3,5-triazin-2-yl)piperazin-1-yl)methyl)-1-thioxoisoindolin-2-yl)piperidine-2,6-dione]	53 to 60	80 to 100		A (0% ≤ substrate protein remaining % ≤ 80%)	
CCc1cc2c(cc1N1CCC(N3CCN(Cc4ccc5c(c4)C(=S)N(C4CCC(=O)NC4=O)C5)CC3)CC1)C(C)(C)c1[nH]c3cc(C#N)ccc3c1C2=O (stereo not shown) [GT-05030, 8-(4-(4-((2-(2,6-dioxopiperidin-3-yl)-3-thioxoisoindolin-5-yl)methyl)piperazin-1-yl)piperidin-1-yl)-9-ethyl-6,6-dimethyl-11-oxo-6,11-dihydro-5H-benzo[b]carbazole-3-carbonitrile]	60 to 80	60 to 80			Degradation of substrate protein ALK (ALK): A (0% ≤ substrate protein remaining % ≤ 80%); IC50 (HCC827): 500 to 1000 nM; IC50 (SR): 10 to 20 nM
Cn1ncc(Cl)c1-c1cc(C(=O)N[C@@H](Cc2ccc(F)c(F)c2)CN2CCN(Cc3ccc4c(c3)CN(C3CCC(=O)NC3=O)C4=S)CC2)oc1Cl (stereo partly drawn) [GT-08896, 5-chloro-4-(4-chloro-1-methyl-1H-pyrazol-5-yl)-N-((2S)-1-(3,4-difluorophenyl)-3-(4-((2-(2,6-dioxopiperidin-3-yl)-1-thioxoisoindolin-5-yl)methyl)piperazin-1-yl)propan-2-yl)furan-2-carboxamide]	53 to 60	80 to 100	A (0% ≤ substrate protein remaining % ≤ 80%)		
Cn1ncc(Cl)c1-c1cc(C(=O)N[C@@H](Cc2cccc(F)c2)CN2CCN(Cc3ccc4c(c3)CN(C3CCC(=O)NC3=O)C4=S)CC2)sc1Cl (stereo partly drawn) [GT-08897, 5-chloro-4-(4-chloro-1-methyl-1H-pyrazol-5-yl)-N-((2S)-1-(4-((2-(2,6-dioxopiperidin-3-yl)-1-thioxoisoindolin-5-yl)methyl)piperazin-1-yl)-3-(3-fluorophenyl)propan-2-yl)thiophene-2-carboxamide]	60 to 80	60 to 80	A (0% ≤ substrate protein remaining % ≤ 80%)		
C[C@H]1Oc2cc(cnc2N)-c2c(nn(C)c2C#N)CN(C)C(=O)c2ccc(F)cc21 [lorlatinib, reference compound]					inhibition at 0.01 µM (MCF-7; MCF7, 10 nM, read-out: Inhibition Rate at 10 nM (%)): 10 to 20%; inhibition at 0.5 µM (MCF-7; MCF7, 500 nM, read-out: Inhibition Rate at 500 nM (%)): 20 to 30%; inhibition at 0.01 µM (CFPAC-1; 10 nM, read-out: Inhibition Rate at 10 nM (%)): 10 to 20%; inhibition at 0.5 µM (CFPAC-1; 500 nM, read-out: Inhibition Rate at 500 nM (%)): 20 to 30%; inhibition at 0.01 µM (A375; A-375, 10 nM, read-out: Inhibition Rate at 10 nM (%)): 10 to 20%; inhibition at 0.5 µM (A375; A-375, 500 nM, read-out: Inhibition Rate at 500 nM (%)): 10 to 20%; inhibition at 0.01 µM (MV-4-11; MV4-11, 10 nM, read-out: Inhibition Rate at 10 nM (%)): -20 to -10%; inhibition at 0.5 µM (MV-4-11; MV4-11, 500 nM, read-out: Inhibition Rate at 500 nM (%)): -5 to 0%; inhibition at 0.01 µM (MM.1S; Table I-2, ALK inhibitors): -5 to 0%; inhibition at 0.5 µM (MM.1S; Table I-2, ALK inhibitors): -20 to -10%; IC50 (HCC827): > 10000 nM; IC50 (SR): > 10000 nM

Further lines, with some results ahead:

inhibition at 0.5 µM [1] [%]	inhibition at 2 µM [1] [%]	Compound	Degradation of substrate protein AKT (AKT)	Degradation of substrate protein Tau (Tau)	also measured
60 to 80	80 to 100	O=C1CCC(N2Cc3cc(CN4CCN(c5ccn6c(n5)nc5ccccc56)CC4)ccc3C2=S)C(=O)N1 (stereo not shown) [GT-08981, 3-(5-((4-(benzo[4,5]imidazo[1,2-a]pyrimidin-2-yl)piperazin-1-yl)methyl)-1-thioxoisoindolin-2-yl)piperidine-2,6-dione]		A (0% ≤ substrate protein remaining % ≤ 80%)	
53 to 60	60 to 80	O=C1CCC(N2Cc3cc(CN4CCN(c5ccc(-c6ccc7c8cnccc8n(C(F)F)c7c6)cn5)CC4)ccc3C2=S)C(=O)N1 (stereo not shown) [GT-08979, 3-(5-((4-(5-(5-(difluoromethyl)-5H-pyrido[4,3-b]indol-7-yl)pyridin-2-yl)piperazin-1-yl)methyl)-1-thioxoisoindolin-2-yl)piperidine-2,6-dione]		A (0% ≤ substrate protein remaining % ≤ 80%)	
